The series in a line: solubility in water at room temperature.

For the compound `OCc1c(F)c(F)c(CO)c(F)c1F` [2,3,5,6-tetrafluorobenzenedimethanol], the solubility in water result is “about 25 g/L”.

Source of the values: US6909023B2, “Production method for benzenedimethanol compound” (Showa Denko K.K., priority 2000, dated 2005).
